Laboratory results published in the NIST ThermoML archive (doi:10.1021/je900596d).

Conditions: Vibrating tube method

FC(F)=C(F)C(F)(F)F [hexafluoropropene]
Conditions	mass density [kg/m3]
357.01 K, 9852.5 kPa, Liquid	1135.74
357.01 K, 9892.6 kPa, Liquid	1136.38
357.01 K, 9933 kPa, Liquid	1137.03
357.01 K, 9973.2 kPa, Liquid	1137.69
357.06 K, 1.6 kPa, Fluid (supercritical or subcritical phases)	0.18
357.06 K, 3.4 kPa, Fluid (supercritical or subcritical phases)	0.25
357.06 K, 4.2 kPa, Fluid (supercritical or subcritical phases)	0.26
357.06 K, 4.9 kPa, Fluid (supercritical or subcritical phases)	0.29
357.06 K, 6.3 kPa, Fluid (supercritical or subcritical phases)	0.31
357.06 K, 6.6 kPa, Fluid (supercritical or subcritical phases)	0.32
357.06 K, 7 kPa, Fluid (supercritical or subcritical phases)	0.35
357.06 K, 7.4 kPa, Fluid (supercritical or subcritical phases)	0.43
357.06 K, 9.1 kPa, Fluid (supercritical or subcritical phases)	0.47
357.06 K, 9.5 kPa, Fluid (supercritical or subcritical phases)	0.49
357.06 K, 11 kPa, Fluid (supercritical or subcritical phases)	0.56
357.06 K, 12.4 kPa, Fluid (supercritical or subcritical phases)	0.6
357.06 K, 13.5 kPa, Fluid (supercritical or subcritical phases)	0.66
357.06 K, 14.9 kPa, Fluid (supercritical or subcritical phases)	0.76
357.06 K, 15.9 kPa, Fluid (supercritical or subcritical phases)	0.79
357.06 K, 17 kPa, Fluid (supercritical or subcritical phases)	0.85
357.06 K, 19.1 kPa, Fluid (supercritical or subcritical phases)	0.98
357.06 K, 21.6 kPa, Fluid (supercritical or subcritical phases)	1.08
357.06 K, 22.7 kPa, Fluid (supercritical or subcritical phases)	1.11
357.06 K, 24 kPa, Fluid (supercritical or subcritical phases)	1.15
357.06 K, 25.1 kPa, Fluid (supercritical or subcritical phases)	1.25
357.06 K, 26.3 kPa, Fluid (supercritical or subcritical phases)	1.3
357.06 K, 27.3 kPa, Fluid (supercritical or subcritical phases)	1.36
357.06 K, 28.4 kPa, Fluid (supercritical or subcritical phases)	1.4
357.06 K, 29.7 kPa, Fluid (supercritical or subcritical phases)	1.46
357.06 K, 30.8 kPa, Fluid (supercritical or subcritical phases)	1.51
357.06 K, 31.8 kPa, Fluid (supercritical or subcritical phases)	1.61
357.06 K, 34 kPa, Fluid (supercritical or subcritical phases)	1.66
357.06 K, 35.1 kPa, Fluid (supercritical or subcritical phases)	1.71
357.06 K, 36.4 kPa, Fluid (supercritical or subcritical phases)	1.75
357.06 K, 37.5 kPa, Fluid (supercritical or subcritical phases)	1.84
357.06 K, 38.5 kPa, Fluid (supercritical or subcritical phases)	1.93
357.06 K, 39.6 kPa, Fluid (supercritical or subcritical phases)	1.96
357.06 K, 40.6 kPa, Fluid (supercritical or subcritical phases)	2.02
357.06 K, 48 kPa, Fluid (supercritical or subcritical phases)	2.38
357.06 K, 58.6 kPa, Fluid (supercritical or subcritical phases)	2.86
357.06 K, 69.5 kPa, Fluid (supercritical or subcritical phases)	3.37
357.06 K, 80.9 kPa, Fluid (supercritical or subcritical phases)	3.92
357.06 K, 92.8 kPa, Fluid (supercritical or subcritical phases)	4.57
357.06 K, 104.1 kPa, Fluid (supercritical or subcritical phases)	5.19
357.06 K, 115 kPa, Fluid (supercritical or subcritical phases)	5.66
357.06 K, 125.7 kPa, Fluid (supercritical or subcritical phases)	6.22
357.06 K, 136.4 kPa, Fluid (supercritical or subcritical phases)	6.83
357.06 K, 148.3 kPa, Fluid (supercritical or subcritical phases)	7.41
357.06 K, 159.2 kPa, Fluid (supercritical or subcritical phases)	8.05
357.06 K, 170 kPa, Fluid (supercritical or subcritical phases)	8.65
357.06 K, 180.8 kPa, Fluid (supercritical or subcritical phases)	9.19
357.06 K, 191.6 kPa, Fluid (supercritical or subcritical phases)	9.77
357.06 K, 206.8 kPa, Fluid (supercritical or subcritical phases)	10.67
357.06 K, 232.7 kPa, Fluid (supercritical or subcritical phases)	11.91
357.06 K, 245.6 kPa, Fluid (supercritical or subcritical phases)	12.63
357.06 K, 258.5 kPa, Fluid (supercritical or subcritical phases)	13.31
357.06 K, 271.2 kPa, Fluid (supercritical or subcritical phases)	14.01
357.06 K, 284 kPa, Fluid (supercritical or subcritical phases)	14.69
357.06 K, 296.8 kPa, Fluid (supercritical or subcritical phases)	15.39
357.06 K, 309.5 kPa, Fluid (supercritical or subcritical phases)	16.12
357.06 K, 322.1 kPa, Fluid (supercritical or subcritical phases)	16.71
357.06 K, 334.9 kPa, Fluid (supercritical or subcritical phases)	17.44
357.06 K, 347.5 kPa, Fluid (supercritical or subcritical phases)	18.11
357.06 K, 360.2 kPa, Fluid (supercritical or subcritical phases)	18.86
357.06 K, 372.7 kPa, Fluid (supercritical or subcritical phases)	19.48
357.06 K, 385.4 kPa, Fluid (supercritical or subcritical phases)	20.16
357.06 K, 401.9 kPa, Fluid (supercritical or subcritical phases)	21.1
357.06 K, 415.8 kPa, Fluid (supercritical or subcritical phases)	21.9
357.06 K, 430.3 kPa, Fluid (supercritical or subcritical phases)	22.74
357.06 K, 445 kPa, Fluid (supercritical or subcritical phases)	23.53
357.06 K, 459.8 kPa, Fluid (supercritical or subcritical phases)	24.37
357.06 K, 474.6 kPa, Fluid (supercritical or subcritical phases)	25.15
357.06 K, 489.6 kPa, Fluid (supercritical or subcritical phases)	26
357.06 K, 504.5 kPa, Fluid (supercritical or subcritical phases)	26.95
357.06 K, 519.5 kPa, Fluid (supercritical or subcritical phases)	27.84
357.06 K, 534.4 kPa, Fluid (supercritical or subcritical phases)	28.66
357.06 K, 549.4 kPa, Fluid (supercritical or subcritical phases)	29.55
357.06 K, 564.2 kPa, Fluid (supercritical or subcritical phases)	30.41
357.06 K, 579 kPa, Fluid (supercritical or subcritical phases)	31.28
357.06 K, 593.8 kPa, Fluid (supercritical or subcritical phases)	32.12
357.06 K, 604.8 kPa, Fluid (supercritical or subcritical phases)	32.81
357.06 K, 619.6 kPa, Fluid (supercritical or subcritical phases)	33.65
357.06 K, 634.3 kPa, Fluid (supercritical or subcritical phases)	34.49
357.06 K, 648.9 kPa, Fluid (supercritical or subcritical phases)	35.43
357.06 K, 663.4 kPa, Fluid (supercritical or subcritical phases)	36.27
357.06 K, 677.9 kPa, Fluid (supercritical or subcritical phases)	37.14
357.06 K, 692.4 kPa, Fluid (supercritical or subcritical phases)	37.98
357.06 K, 706.7 kPa, Fluid (supercritical or subcritical phases)	38.87
357.06 K, 721 kPa, Fluid (supercritical or subcritical phases)	39.69
357.06 K, 735.2 kPa, Fluid (supercritical or subcritical phases)	40.55
357.06 K, 749.2 kPa, Fluid (supercritical or subcritical phases)	41.45
357.06 K, 763.3 kPa, Fluid (supercritical or subcritical phases)	42.35
357.06 K, 777.3 kPa, Fluid (supercritical or subcritical phases)	43.14
357.06 K, 791.2 kPa, Fluid (supercritical or subcritical phases)	44.03
357.06 K, 805.1 kPa, Fluid (supercritical or subcritical phases)	44.87
357.06 K, 818.9 kPa, Fluid (supercritical or subcritical phases)	45.78
357.06 K, 832.6 kPa, Fluid (supercritical or subcritical phases)	46.65
357.06 K, 846.3 kPa, Fluid (supercritical or subcritical phases)	47.44
357.06 K, 859.8 kPa, Fluid (supercritical or subcritical phases)	48.34
357.06 K, 873.5 kPa, Fluid (supercritical or subcritical phases)	49.21
357.06 K, 887 kPa, Fluid (supercritical or subcritical phases)	50.07
357.06 K, 900.7 kPa, Fluid (supercritical or subcritical phases)	50.9
357.06 K, 927.4 kPa, Fluid (supercritical or subcritical phases)	52.68
357.06 K, 940.7 kPa, Fluid (supercritical or subcritical phases)	53.53
357.06 K, 953.9 kPa, Fluid (supercritical or subcritical phases)	54.39
357.06 K, 966.4 kPa, Fluid (supercritical or subcritical phases)	55.2
357.06 K, 980.4 kPa, Fluid (supercritical or subcritical phases)	56.19
357.06 K, 992.5 kPa, Fluid (supercritical or subcritical phases)	56.92
357.06 K, 1019.3 kPa, Fluid (supercritical or subcritical phases)	58.76
357.06 K, 1047.3 kPa, Fluid (supercritical or subcritical phases)	60.62
357.06 K, 1075 kPa, Fluid (supercritical or subcritical phases)	62.53
357.06 K, 1101.6 kPa, Fluid (supercritical or subcritical phases)	64.29
357.06 K, 1126.7 kPa, Fluid (supercritical or subcritical phases)	66.03
357.06 K, 1151 kPa, Fluid (supercritical or subcritical phases)	67.74
357.06 K, 1176.3 kPa, Fluid (supercritical or subcritical phases)	69.58
357.06 K, 1201.9 kPa, Fluid (supercritical or subcritical phases)	71.4
357.06 K, 1228.4 kPa, Fluid (supercritical or subcritical phases)	73.29
357.06 K, 1259 kPa, Fluid (supercritical or subcritical phases)	75.66
357.06 K, 1289.5 kPa, Fluid (supercritical or subcritical phases)	77.81
357.06 K, 1322.3 kPa, Fluid (supercritical or subcritical phases)	80.32
357.06 K, 1338.6 kPa, Fluid (supercritical or subcritical phases)	81.39
357.06 K, 1356.1 kPa, Fluid (supercritical or subcritical phases)	82.86
357.06 K, 1372.3 kPa, Fluid (supercritical or subcritical phases)	84.1
357.06 K, 1389.3 kPa, Fluid (supercritical or subcritical phases)	85.41
357.06 K, 1417.8 kPa, Fluid (supercritical or subcritical phases)	87.61
357.06 K, 1448.6 kPa, Fluid (supercritical or subcritical phases)	89.98
357.06 K, 1476.5 kPa, Fluid (supercritical or subcritical phases)	92.14
357.06 K, 1508.7 kPa, Fluid (supercritical or subcritical phases)	94.88
357.06 K, 1525.6 kPa, Fluid (supercritical or subcritical phases)	96.25
357.06 K, 1543.7 kPa, Fluid (supercritical or subcritical phases)	97.72
357.06 K, 1568 kPa, Fluid (supercritical or subcritical phases)	99.77
357.06 K, 1585.8 kPa, Fluid (supercritical or subcritical phases)	101.24
357.06 K, 1616.4 kPa, Fluid (supercritical or subcritical phases)	103.7
357.06 K, 1633.9 kPa, Fluid (supercritical or subcritical phases)	105.22
